Assay results: US10682319B2, “Necrosis inhibitors” (National Institute of Biological Sciences, Beijing, priority 2014, dated 2020)

tested on: HT-29 cells; assay: Necrosis assay (TNF-α/Smac mimetic/z-VAD induced necrosis, cell viability by ATP level); assay type: cell-based; details: HT-29, TNF-α + Smac mimetic + z-VAD, 24 hrs, ATP level; values given as ranges in nM; read-out: EC50 (inhibition of necrosis in HT-29 cells)
Method: HT-29 cells were cultured in McCoy's 5 A culture medium (Invitrogen). On day one, HT-29 cells were plated in 96-well assay plates at density of 2,500-3,500 cells per well. On day two, necrosis were induced by adding 20 ng/ml TNF-α (T), 100 nM Smac mimetic (S), and […] z-VAD (Z). At the same time, […] compound from a chemical library of ˜200,000 compounds was delivered into each well. After 24 hrs treatment, cell viability was determined by measuring ATP level using the CellTiter-Glo Luminescent Cell Viability Assay kit. A CellTiter-Glo Assay (Promega) was performed according to the manufacturer's instructions Luminescence was recorded with a PerkinElmer EnSpire Multimode Plate Reader. Survived cells were normalized to those cells treated with DMSO. Nec-1 was used as a positive control for screening necrosis inhibitors. Data are represented as mean±standard deviation of duplicates
Dose-dependent inhibition of necrosis by the compounds in HT-29 cells were determined by measuring ATP levels as described above.

`CC1CCCC(C)N1C(=O)N(C)Cc1cc(F)cc(F)c1F` (stereo not shown) [Compound 121, N,2,6-trimethyl-N-(2,3,5-trifluorobenzyl)piperidine-1-carboxamide] and `CN(Cc1cc(F)cc(F)c1F)C(=O)C(C)(C)C` [Compound S2, N-methyl-N-(2,3,5-trifluorobenzyl)pivalamide] fall in the same range of EC50: 1 to 1000 nM for the first, 1 to 1000 nM for the second.

`CCC(C)(C)C(=O)N(C)Cc1cc(C)c(C)s1` [Compound 128, N-((4,5-dimethylthiophen-2-yl)methyl)-N,2,2-trimethylbutanamide] and `CCC(C)(C)C(=O)N(C)Cc1cccc(F)c1F` [Compound S8, N-(2,3-difluorobenzyl)-N,2,2-trimethylbutanamide] fall in the same range of EC50: 1 to 1000 nM for the first, 1 to 1000 nM for the second.

`CCC(C)(C)C(=O)N(Cc1ccccc1)OC(C)=O` [Compound S3, N-acetoxy-N-benzyl-2,2-dimethylbutanamide] and `CCC(C)(C)C(=O)N(Cc1ccccc1)OC` [Compound S4, N-benzyl-N-methoxy-2,2-dimethylbutanamide] fall in the same range of EC50: 1 to 1000 nM for the first, 1 to 1000 nM for the second.

`CN(Cc1cc(F)cc(F)c1F)C(=O)C(C)(C)C(C)(F)F` [Compound S5, 3,3-difluoro-N,2,2-trimethyl-N-(2,3,5-trifluorobenzyl)butanamide] and `CC(F)(F)C(C)(C)C(=O)N(O)Cc1ccccc1` [Compound S6, N-benzyl-3,3-difluoro-N-hydroxy-2,2-dimethylbutanamide] fall in the same range of EC50: 1 to 1000 nM for the first, 1 to 1000 nM for the second.

same assay, conditions: Homo sapiens, HT-29, 24 h, HT-29, TNF-α + Smac mimetic + z-VAD, 24 hrs, ATP level; values given as ranges in uM; read-out: EC50 (inhibition of necrosis in HT-29 cells)

`CCC(C)(C)C(=O)N[C@@H](CC(=O)NCCOCCOC)c1ccccc1` [Compound 102, (S)—N-(3-((2-(2-methoxyethoxy)ethyl)amino)-3-oxo-1-phenylpropyl)-2,2-dimethylbutanamide] and `CCNC(=O)C[C@H](NC(=O)C(C)(C)CC)c1ccccc1` [Compound 103, (S)—N-(3-(ethylamino)-3-oxo-1-phenylpropyl)-2,2-dimethylbutanamide] fall in the same range of EC50: 1000 to 100000 nM for the first, 1000 to 100000 nM for the second.

`CCC(C)(C)C(=O)N[C@@H](CC(=O)NC1CCCCC1)c1ccccc1` [Compound 104, (S)—N-(3-(cyclohexylamino)-3-oxo-1-phenylpropyl)-2,2-dimethylbutanamide] and `CCC(C)(C)C(=O)N[C@@H](CC(=O)N1CCCCC1)c1ccccc1` [Compound 105, (S)-2,2-dimethyl-N-(3-oxo-1-phenyl-3-(piperidin-1-yl)propyl)butanamide] fall in the same range of EC50: 1000 to 100000 nM for the first, 1000 to 100000 nM for the second.

`CCC(C)(C)C(=O)N[C@@H](CC(=O)Nc1ccccc1)c1ccccc1` [Compound 106, (S)-2,2-dimethyl-N-(3-oxo-1-phenyl-3-(phenylamino)propyl)butanamide] and `CCC(C)(C)C(=O)N[C@@H](CC(=O)NCc1ccccc1)c1ccccc1` [Compound 107, (S)—N-(3-(benzylamino)-3-oxo-1-phenylpropyl)-2,2-dimethylbutanamide] fall in the same range of EC50: 1000 to 100000 nM for the first, 1000 to 100000 nM for the second.

`CCC(C)(C)C(=O)N[C@@H](CC(=O)NCCc1ccccc1)c1ccccc1` [Compound 108, (S)-2,2-dimethyl-N-(3-oxo-3-(phenethylamino)-1-phenylpropyl)butanamide] and `CCC(C)(C)C(=O)N[C@@H](CC(=O)NCCOc1ccccc1)c1ccccc1` [Compound 126, (S)-2,2-dimethyl-N-(3-oxo-3-((2-phenoxyethyl)amino)-1-phenylpropyl)butanamide] fall in the same range of EC50: 1000 to 100000 nM for the first, 1000 to 100000 nM for the second.

`CCC(C)(C)C(=O)N[C@@H](CO)c1ccccc1` [Compound 109, (R)—N-(2-hydroxy-1-phenylethyl)-2,2-dimethylbutanamide] and `CCC(C)(C)C(=O)NC(CO)c1ccccc1` (stereo not shown) [Compound 110, N-(2-hydroxy-1-phenylethyl)-2,2-dimethylbutanamide] fall in the same range of EC50: 1000 to 100000 nM for the first, 1000 to 100000 nM for the second.

`CCC(C)(C)C(=O)N(C)C(CO)c1ccccc1` (stereo not shown) [Compound 111, N-(2-hydroxy-1-phenylethyl)-N,2,2-trimethylbutanamide] and `CCC(C)(C)C(=O)N(O)C(CO)c1ccccc1` (stereo not shown) [Compound 150] fall in the same range of EC50: 1000 to 100000 nM for the first, 1000 to 100000 nM for the second.

`CCC(C)(C)C(=O)N(C)C(COC)c1ccccc1` (stereo not shown) [Compound 112, N-(2-methoxy-1-phenylethyl)-N,2,2-trimethylbutanamide] and `CCC(C)(C)C(=O)N(Cc1ccccc1)OC` [Compound 151] fall in the same range of EC50: 1000 to 100000 nM for the first, 1000 to 100000 nM for the second.

`CN(Cc1ccccc1F)C(=O)NC1CCCCC1` [Compound 113, 3-cyclohexyl-1-(2-fluorobenzyl)-1-methylurea] and `CC(C)NC(=O)N(C)Cc1ccccc1F` [Compound 114, 1-(2-fluorobenzyl)-3-isopropyl-1-methylurea] fall in the same range of EC50: 1000 to 100000 nM for the first, 1000 to 100000 nM for the second.

`CCN(Cc1cc(F)cc(F)c1F)C(=O)N(C)C(C)C` [Compound 115, 1-ethyl-3-isopropyl-3-methyl-1-(2,3,5-trifluorobenzyl)urea] and `CC(C)N(C)C(=O)N(C)Cc1cc(F)cc(F)c1F` [Compound 120, isopropyl-1,3-dimethyl-3-(2,3,5-trifluorobenzyl)urea] cannot be ordered by EC50: 1000 to 100000 nM for the first, 1000 to 10000 nM for the second.

`CCC1CCCCN1C(=O)N(C)Cc1cc(F)cc(F)c1F` (stereo not shown) [Compound 116, 2-ethyl-N-methyl-N-(2,3,5-trifluorobenzyl)piperidine-1-carboxamide] and `CC1CCCCN1C(=O)N(C)Cc1cc(F)cc(F)c1F` (stereo not shown) [Compound 117, N,2-dimethyl-N-(2,3,5-trifluorobenzyl)piperidine-1-carboxamide] cannot be ordered by EC50: 1000 to 100000 nM for the first, 1000 to 10000 nM for the second.

`CC1CCCN(C(=O)N(C)Cc2cc(F)cc(F)c2F)C1` (stereo not shown) [Compound 118, N,3-dimethyl-N-(2,3,5-trifluorobenzyl)piperidine-1-carboxamide] and `CC(C)N(C(=O)N(C)Cc1cc(F)cc(F)c1F)C(C)C` [Compound 119, 1,1-diisopropyl-3-methyl-3-(2,3,5-trifluorobenzyl)urea] fall in the same range of EC50: 1000 to 100000 nM for the first, 1000 to 100000 nM for the second.

`CCC(C)(C)C(=O)N[C@@H](C(=O)NC)c1ccccc1` [Compound 122, (R)-2,2-dimethyl-N-(2-(methylamino)-2-oxo-1-phenylethyl)butanamide] and `CCC(C)(C)C(=O)N[C@@H](C(=O)N(C)C)c1ccccc1` [Compound 123, (R)—N-(2-(dimethylamino)-2-oxo-1-phenylethyl)-2,2-dimethylbutanamide] fall in the same range of EC50: 1000 to 100000 nM for the first, 1000 to 100000 nM for the second.

`CCC(C)(C)C(=O)N[C@@H](C(=O)NCc1ccccc1)c1ccccc1` [Compound 124, (R)—N-(2-(benzylamino)-2-oxo-1-phenylethyl)-2,2-dimethylbutanamide] and `CCC(C)(C)C(=O)N[C@@H](C(=O)NCCc1ccccc1)c1ccccc1` [Compound 125, (R)-2,2-dimethyl-N-(2-oxo-2-(phenethylamino)-1-phenylethyl)butanamide] fall in the same range of EC50: 1000 to 100000 nM for the first, 1000 to 100000 nM for the second.

`CCC(C)(C)C(=O)N[C@@H](C(=O)NCCOc1ccccc1)c1ccccc1` [Compound 127, (R)-2,2-dimethyl-N-(2-oxo-2-((2-phenoxyethyl)amino)-1-phenylethyl)butanamide] and `CCC(C)(C)C(=O)N(C)[C@@H](CO)c1ccccc1F` [Compound 148] fall in the same range of EC50: 1000 to 100000 nM for the first, 1000 to 100000 nM for the second.

`CN(Cc1cc(F)c(F)c(F)c1)C(=O)c1c(Cl)cccc1Cl` [Compound 129, 2,6-dichloro-N-methyl-N-(3,4,5-trifluorobenzyl)benzamide] and `CCC(C)(C)C(=O)N(Cc1cc(F)c(F)c(F)c1)OC` [Compound 134] fall in the same range of EC50: 1000 to 100000 nM for the first, 1000 to 100000 nM for the second.

`CCC(C)(C)C(=O)N(Cc1ccc(F)cc1)OC` [Compound 130] and `CCC(C)(C)C(=O)N(C)Cc1ccc(F)cc1` [Compound S7, N-(4-fluorobenzyl)-N,2,2-trimethylbutanamide] cannot be ordered by EC50: 1000 to 100000 nM for the first, 1000 to 10000 nM for the second.

`CCC(C)(C)C(=O)N(Cc1ccc(F)cc1F)OC` [Compound 131] and `CCC(C)(C)C(=O)N(Cc1cc(F)cc(F)c1F)OC` [Compound 135] fall in the same range of EC50: 1000 to 100000 nM for the first, 1000 to 100000 nM for the second.

`CCC(C)(C)C(=O)N(Cc1ccc(F)c(F)c1)OC` [Compound 132] and `CCC(C)(C)C(=O)N(Cc1cc(F)c(F)cc1F)OC` [Compound 133] fall in the same range of EC50: 1000 to 100000 nM for the first, 1000 to 100000 nM for the second.

`CCC(C)(C)C(=O)N(O)Cc1cccs1` [Compound 136] and `CCC(C)(C)C(=O)N(O)Cc1ccc(C)s1` [Compound 137] fall in the same range of EC50: 1000 to 100000 nM for the first, 1000 to 100000 nM for the second.

`CCC(C)(C)C(=O)N(O)Cc1sc(C)cc1C` [Compound 138] and `C=CC(C)(C)C(=O)N(O)Cc1sc(C)cc1C` [Compound 146] fall in the same range of EC50: 1000 to 100000 nM for the first, 1000 to 100000 nM for the second.

`CCC(C)(C)C(=O)N(O)CC1CCCC1` [Compound 139] and `CCC(C)(C)C(=O)N(O)CC1CCCCC1` [Compound 141] fall in the same range of EC50: 1000 to 100000 nM for the first, 1000 to 100000 nM for the second.

`CCC(C)(C)C(=O)N(O)CC1=CCCC1` [Compound 140] and `CCC(C)(C)C(=O)N(O)CC1CCCO1` (stereo not shown) [Compound 142] fall in the same range of EC50: 1000 to 100000 nM for the first, 1000 to 100000 nM for the second.

`CCC(C)(C)C(=O)N(O)Cc1cccn1C` [Compound 143] and `CCC(C)(C)C(=O)N(O)Cc1cn(C)cc1C` [Compound 144] fall in the same range of EC50: 1000 to 100000 nM for the first, 1000 to 100000 nM for the second.

`C=CC(C)(C)C(=O)N(O)Cc1sccc1C` [Compound 145] and `C=CC(C)(C)C(=O)N(C)Cc1ccccc1F` [Compound 147] fall in the same range of EC50: 1000 to 100000 nM for the first, 1000 to 100000 nM for the second.

`CCC(C)(C)C(=O)N(C)[C@@H](CO)c1cc(F)cc(F)c1F` [Compound 149] and `CC(C)(C)C(=O)NCc1cc(F)cc(F)c1F` [Compound S1, N-(2,3,5-trifluorobenzyl)pivalamide] cannot be ordered by EC50: 1000 to 100000 nM for the first, 1000 to 10000 nM for the second.

`CC(F)(F)C(C)(C)C(=O)N(O)Cc1ccc(F)cc1` [Compound S9] and `CC(F)(F)C(C)(C)C(=O)N(O)Cc1ccc(F)c(F)c1` [Compound S11] fall in the same range of EC50: 1000 to 100000 nM for the first, 1000 to 100000 nM for the second.

In the case of `CC(F)(F)C(C)(C)C(=O)N(O)Cc1ccc(F)cc1F` [Compound S10], the EC50 is reported as 1000 to 100000 nM.
